According to ChEMBL document CHEMBL4130488, “Synthesis and biological evaluation of novel non-racemic indole-containing allocolchicinoids” (Eur J Med Chem, 2017):
Activity calls are given as the source filed them. The calls are words filed in the database; no cut-off is given here.

Columns and labels:
HEK293 [1] = assay: Cytotoxic activity in HEK293 cells assessed as reduction in cell viability incubated for 72 hrs by MTT assay; assay type: cell-based; conditions: Homo sapiens, HEK293, 72 h
HEK293 [2] = assay: Cytotoxic activity in HEK293 cells assessed as reduction in cell viability at 0.1 to 100000 nM incubated for 24 hrs by MTT assay; assay type: cell-based; conditions: human, hek293, 24 h, 100 µM
[3] = Gastrointestinal toxicity in human HT-29 cells assessed as effect on membrane integrity at 5 uM incubated for 3 hrs by flow cytometry; assay type: cell-based; conditions: ht-29, 3 h
COLO357 [4] = assay: Induction of cell cycle arrest in human Colo-357 cells assessed as accumulation at G2/M phase at 5 uM incubated for 72 hrs by propidium iodide staining based flow cytometry (reference value: 31%); assay type: functional
Homo sapiens [5] = species on record: Homo sapiens; assay: Inhibition of beta tubulin assembly in human Colo-357 cells at 5 uM incubated for 3 hrs by anti-tubulin antibody based confocal microscopy; assay type: cell-based
COLO357 [6] = assay: Induction of apoptosis in human Colo-357 cells at 5 uM incubated for 72 hrs by propidium iodide staining based flow cytometry (reference value: 12.4%); assay type: functional
COLO357 [7] = assay: Cytotoxic activity in human Colo-357 cells assessed as reduction in cell viability incubated for 72 hrs by MTT assay; assay type: functional, cell-based; conditions: COLO357, 72 h
COLO357 [8] = assay: Induction of cell cycle arrest in human Colo-357 cells assessed as accumulation at G phase at 5 uM incubated for 72 hrs by propidium iodide staining based flow cytometry (reference value: 56.6%); assay type: functional
[9] = Gastrointestinal toxicity in human HT-29 cells assessed as effect on EPR at 5 uM incubated for 3 hrs by flow cytometry; assay type: cell-based; conditions: ht-29, 3 h
Homo sapiens [10] = species on record: Homo sapiens; assay: Inhibition of beta tubulin assembly in human Colo-357 cells at 5 uM incubated for 24 hrs by anti-tubulin antibody based confocal microscopy; assay type: cell-based
[11] = Gastrointestinal toxicity in human HT-29 cells assessed as effect on golgi apparatus at 5 uM incubated for 3 hrs by flow cytometry; assay type: cell-based; conditions: ht-29, 3 h
[12] = Gastrointestinal toxicity in human HT-29 cells assessed as mitochondrial stimulation at 5 uM incubated for 3 hrs by flow cytometry; assay type: cell-based; conditions: ht-29, 3 h
COLO357 [13] = assay: Induction of mitochondrial changes in human Colo-357 cells at 5 uM incubated for 3 hrs by flow cytometry; assay type: functional, cell-based
[14] = Gastrointestinal toxicity in human HT-29 cells assessed as effect on endosomes at 5 uM incubated for 3 hrs by flow cytometry; assay type: cell-based; conditions: ht-29, 3 h
[15] = Gastrointestinal toxicity in human HT-29 cells assessed as lysosomal membrane potential at 5 uM incubated for 3 hrs by flow cytometry; assay type: cell-based; conditions: ht-29, 3 h
COLO357 [16] = assay: Induction of cell cycle arrest in human Colo-357 cells assessed as accumulation at […] phase at 5 uM incubated for 72 hrs by propidium iodide staining based flow cytometry (reference value: 1.8%); assay type: functional
HT-29 = assay: Cytotoxic activity in human HT-29 cells assessed as reduction in cell viability at 0.1 to 100000 nM incubated for 24 hrs by MTT assay; assay type: functional, cell-based
MIA PaCa-2 = assay: Cytotoxic activity in human MIAPaCa2 cells assessed as reduction in cell viability incubated for 72 hrs by MTT assay; assay type: functional, cell-based; conditions: MIA PaCa-2, 72 h
PANC-1 = assay: Cytotoxic activity in human PANC1 cells assessed as reduction in cell viability at 0.1 to 100000 nM incubated for 24 hrs by MTT assay; assay type: functional, cell-based
COLO357 [17] = assay: Growth inhibition of human Colo-357 cells incubated for 72 hrs by MTT assay; assay type: functional
[18] = Gastrointestinal toxicity in human HT-29 cells assessed as increase in mitochondrial number at 5 uM incubated for 3 hrs by flow cytometry; assay type: cell-based; conditions: ht-29, 3 h
[19] = Gastrointestinal toxicity in human HT-29 cells assessed as increase in mitochondrial membrane potential at 5 uM incubated for 3 hrs by flow cytometry; assay type: cell-based; conditions: ht-29, 3 h
[20] = Gastrointestinal toxicity in human HT-29 cells assessed as relocation from perinuclear position to cytoplasm at 5 uM incubated for 3 hrs by flow cytometry; assay type: cell-based; conditions: ht-29, 3 h

SMILES | IC50 (HEK293 [1]) [nM] | Activity [3] | Activity (COLO357 [4]) [%] | Activity (COLO357 [6]) [%] | IC50 (COLO357 [7]; read-out: IC50) [nM] | Activity (COLO357 [8]) [%] | Activity [9] | inhibition (Homo sapiens [10]) | Activity [11] | Activity [14] | Activity [15] | Activity (COLO357 [16]) [%] | IC50 (MIA PaCa-2; read-out: IC50) [nM] | growth inhibition (GI) (COLO357 [17]) | further results
COc1c(Br)c2c(c(OC)c1OC)-c1cc3cc(CO)n(C)c3cc1[C@@H](NC(C)=O)CC2 | 6.4 | Non-Toxic | 63 | 25 | 0.3 | 12 | Non-Toxic | Active | Non-Toxic | Non-Toxic | Non-Toxic | 0.2 | < 0.1 | 60 - 80% | Activity (HEK293 [2]): Non-Toxic; inhibition (Homo sapiens [5]): Active; Activity [12]: Non-Toxic; Activity (COLO357 [13]): Active; Activity (HT-29): Active; Activity (PANC-1): inactive
COc1c(Br)c2c(c(OC)c1OC)-c1cc3cc(CO)[nH]c3cc1[C@@H](NC(C)=O)CC2 | 160 | – | 61 | 23 | 3.5 | 16 | – | Active | – | – | – | 0.3 | 10 | 60 - 80% | –
COc1cc2c(c(OC)c1OC)-c1ccc(OC)c(=O)cc1[C@@H](NC(C)=O)CC2 [COLCHICINE] | 32 | Non-Toxic | 75 | 12.4 | – | 12.6 | Non-Toxic | Active | Non-Toxic | Non-Toxic | Toxic | 0.2 | – | 60 - 80% | Activity [18]: Toxic; IC50 (COLO357 [7]): 1.3 nM; Activity [19]: Toxic; Activity [20]: Toxic; IC50 (MIA PaCa-2): 1.3 nM
